From patent publication US4160028A, “Substituted 2-cyclopropyl-chromones and pharmaceutical compositions and use thereof” (Carlo Erba S.p.A., priority 1977, dated 1979)

Assay: seven days indicative acute toxicity after oral administration
Settings: rat, in vivo, rats
Method: Seven days indicative acute toxicity after oral administration was assessed for the compounds of the invention. For example, for the compound identified by the code K 13262, a LD50 >400 mg/kg in rats was obtained.

`CCCc1c([C@@H]2C[C@H]2c2ccccc2)oc2ccc(C(=O)O)cc2c1=O` (relative stereo) [K 13262, trans 6-carboxy-3-propyl-2-(2-phenyl-cyclopropyl)-chromone] showed an LD50 at 168 h of over 400 mg/kg.
